According to patent publication US20070093969A1, “Molecular nephrotoxicology modeling” (priority 2002, published 2007):

How the values were obtained:
rats [1] = settings: cited from earlier work
[2] = test system: renal GST-alpha subunit, cytochrome P4502E1; settings: rat, in vivo; cited from earlier work
patients = settings: human, in vivo; cited from earlier work
rats [3] = settings: rat, in vivo; cited from earlier work
[4] = test system: kidney tissue gene expression; settings: rat, in vivo

NNc1nncc2ccccc12 [hydralazine, Hydralazine]
kidney copper concentrations (rats [1]; compared to control groups): increased
manganese and zinc concentrations (rats [1]; rat, in vivo): not effected
renal GST-alpha subunit expression [2]: increase
renal cytochrome P4502E1 expression [2]: did not alter

Nc1ccn(C[C@@H](CO)OCP(=O)(O)O)c(=O)n1 [cidofovir, Cidofovir]
patients with dose-dependent asymptomatic proteinuria (patients): Approximately 40%
patients with elevated serum creatinine levels (patients): 25%

ClC(Cl)(Cl)Cl [carbon tetrachloride, Carbon tetrachloride]
glutathione peroxidase activity (rats [3]): significant decrease
kidney superoxide dismutase and catalase activities (rats [3]): Significant increases

ClC(Cl)Cl [chloroform, Chloroform (CHCl3)]
Tox Group Mean, GLGC Identifier 1143 [4]: 131.83
Tox Group Mean, GLGC Identifier 1409 [4]: 298.20
Tox Group Mean, GLGC Identifier 1509 [4]: 431.65
Tox Group Mean, GLGC Identifier 1581 [4]: 87.66
Tox Group Mean, GLGC Identifier 1644 [4]: 418.83
Tox Group Mean, GLGC Identifier 1652 [4]: 476.16
Tox Group Mean, GLGC Identifier 1653 [4]: 686.13
Tox Group Mean, GLGC Identifier 1877 [4]: 444.75
Tox Group Mean, GLGC Identifier 1929 [4]: 536.97
Tox Group Mean, GLGC Identifier 1949 [4]: 57.75
Tox Group Mean, GLGC Identifier 2059 [4]: 219.06
Tox Group Mean, GLGC Identifier 2439 [4]: 102.63
Tox Group Mean, GLGC Identifier 2912 [4]: 1436.37
Tox Group Mean, GLGC Identifier 3015 [4]: 2837.91
Tox Group Mean, GLGC Identifier 3091 [4]: 421.64
Tox Group Mean, GLGC Identifier 3803 [4]: 975.63
Tox Group Mean, GLGC Identifier 3875 [4]: 252.35
Tox Group Mean, GLGC Identifier 4178 [4]: 444.39
Tox Group Mean, GLGC Identifier 4462 [4]: 414.41
Tox Group Mean, GLGC Identifier 4463 [4]: 43.16
Tox Group Mean, GLGC Identifier 4473 [4]: 95.76
Tox Group Mean, GLGC Identifier 4933 [4]: 743.88
Tox Group Mean, GLGC Identifier 5369 [4]: 274.28
Tox Group Mean, GLGC Identifier 6127 [4]: 41.36
Tox Group Mean, GLGC Identifier 6343 [4]: 46.79
Tox Group Mean, GLGC Identifier 6641 [4]: 233.86
Tox Group Mean, GLGC Identifier 7216 [4]: 123.29
Tox Group Mean, GLGC Identifier 7299 [4]: 334.53
Tox Group Mean, GLGC Identifier 7505 [4]: 274.29
Tox Group Mean, GLGC Identifier 7622 [4]: 88.74
Tox Group Mean, GLGC Identifier 7634 [4]: 538.91
Tox Group Mean, GLGC Identifier 7936 [4]: 93.98
Tox Group Mean, GLGC Identifier 8721 [4]: 73.87
Tox Group Mean, GLGC Identifier 8829 [4]: 505.66
Tox Group Mean, GLGC Identifier 8927 [4]: 508.53
Tox Group Mean, GLGC Identifier 8946 [4]: 112.12
Tox Group Mean, GLGC Identifier 9116 [4]: 269.31
Tox Group Mean, GLGC Identifier 9176 [4]: 288.61
Tox Group Mean, GLGC Identifier 9191 [4]: 277.28
Tox Group Mean, GLGC Identifier 10130 [4]: 117.70
Tox Group Mean, GLGC Identifier 11761 [4]: 49.48
Tox Group Mean, GLGC Identifier 11843 [4]: 61.43
Tox Group Mean, GLGC Identifier 11953 [4]: 1079.47
Tox Group Mean, GLGC Identifier 12129 [4]: 245.65
Tox Group Mean, GLGC Identifier 13610 [4]: 226.14
Tox Group Mean, GLGC Identifier 13646 [4]: 1169.38
Tox Group Mean, GLGC Identifier 13727 [4]: 35.36
Tox Group Mean, GLGC Identifier 14267 [4]: 1171.51
Tox Group Mean, GLGC Identifier 15072 [4]: 42.04
Tox Group Mean, GLGC Identifier 15836 [4]: 121.07
Tox Group Mean, GLGC Identifier 15964 [4]: 583.51
Tox Group Mean, GLGC Identifier 16468 [4]: 831.97
Tox Group Mean, GLGC Identifier 16469 [4]: 991.10
Tox Group Mean, GLGC Identifier 16756 [4]: 361.18
Tox Group Mean, GLGC Identifier 16948 [4]: 145.85
Tox Group Mean, GLGC Identifier 16958 [4]: 61.46
Tox Group Mean, GLGC Identifier 17361 [4]: 50.93
Tox Group Mean, GLGC Identifier 17516 [4]: 500.55
Tox Group Mean, GLGC Identifier 17524 [4]: 799.10
Tox Group Mean, GLGC Identifier 17541 [4]: 1464.81
Tox Group Mean, GLGC Identifier 18509 [4]: 311.54
Tox Group Mean, GLGC Identifier 19110 [4]: 84.32
Tox Group Mean, GLGC Identifier 19144 [4]: 36.63
Tox Group Mean, GLGC Identifier 19377 [4]: 155.74
Tox Group Mean, GLGC Identifier 19679 [4]: 440.67
Tox Group Mean, GLGC Identifier 19822 [4]: 994.53
Tox Group Mean, GLGC Identifier 20000 [4]: 93.69
Tox Group Mean, GLGC Identifier 20582 [4]: 347.72
Tox Group Mean, GLGC Identifier 20708 [4]: 80.85
Tox Group Mean, GLGC Identifier 20725 [4]: 621.86
Tox Group Mean, GLGC Identifier 20741 [4]: 236.26
Tox Group Mean, GLGC Identifier 21025 [4]: 233.83
Tox Group Mean, GLGC Identifier 21060 [4]: 133.69
Tox Group Mean, GLGC Identifier 21061 [4]: 86.99
Tox Group Mean, GLGC Identifier 21088 [4]: 56.92
Tox Group Mean, GLGC Identifier 21562 [4]: 265.87
Tox Group Mean, GLGC Identifier 22490 [4]: 811.57
Tox Group Mean, GLGC Identifier 22537 [4]: 145.19
Tox Group Mean, GLGC Identifier 22648 [4]: 313.31
Tox Group Mean, GLGC Identifier 22783 [4]: 473.86
Tox Group Mean, GLGC Identifier 22855 [4]: 373.13
Tox Group Mean, GLGC Identifier 22985 [4]: 83.55
Tox Group Mean, GLGC Identifier 23033 [4]: 431.39
Tox Group Mean, GLGC Identifier 23115 [4]: 278.57
Tox Group Mean, GLGC Identifier 23282 [4]: 425.15
Tox Group Mean, GLGC Identifier 23718 [4]: 65.41
Tox Group Mean, GLGC Identifier 24234 [4]: 408.25
Tox Group Mean, GLGC Identifier 24437 [4]: 56.38
Tox Group Mean, GLGC Identifier 25168 [4]: 32.68
Tox Group Mean, GLGC Identifier 25643 [4]: 187.37
Tox Group Mean, GLGC Identifier 25777 [4]: 1173.74
Tox Group Mean, GLGC Identifier 25862 [4]: 38.61
Tox Group Mean, GLGC Identifier 25921 [4]: 47.30
Tox Group Mean, GLGC Identifier 26183 [4]: 64.68
